As usually defined, the EC50 (read off the curve) is the concentration needed to bring the measured effect to its halfway point. A high value points to a less potent agent. As a reminder, the Kd is the constant that tells how readily two partners part at equilibrium. A high value points to weaker binding.

3 molecules from patent US20240360186A1, “Treatment Of Integrin-Related Disorders With Stapled Peptides” (Institute For Cancer Research d/b/a The Research Institute …, priority 2021, published 2024) can be followed below.

Bridge positions count the residues as written; N and C are the ends. Square brackets hold non-standard residues; d marks the D form. Ends that are not written are not given here. Peptide text beside a SMILES is read from it. S5 = C=CCCC[C@](C)(N)C(=O)O

For data set [1], the system named is HEK-293 cells. Nature of the data set: Cell toxicity assay, HEK-293. It counts as cell-based. The settings on record: 40 μM, treated one hour then washed away, viability at 24 and 48 hours. The protocol:
(§1) The cell toxicity of the peptides was then examined. HEK, MCF-7, and HeLa were used. Cells were treated with S-TBS 40 μm for one hour. The S-TBS was then washed away and the viability measured at 24 and 48 hours. No impact on HEK, MCF-7, and HeLa cell growth was observed.

Data set [2] relates to integrin αIIbβ3. In words: Integrin activation assay, inactive talin head mutant THD-W359A. Type of data set: cell-based. The settings on record: CHO-A5 cells transfected with THD-W359A; TBS 100 μM, S-TBS 10 and 100 μM; PAC1 flow cytometry. The protocol:
(§2) Assessing integrin activation: CHO-A5 cells were transfected with GFP-tagged talin-head domain (residues 1-430, WT or W359A) and incubated for 24 hours at 37° C. The cells were subsequently treated with WT-TBS at 100 μM or Staple-TBS (at 10 and 100 μM) for 30 minutes at 37° C. and washed twice with PBS, harvested in trypsin-EDTA, and centrifuged at 2,000 rpm for 5 minutes. The cells were incubated in Tyrode's buffer (136.9 mM NaCl, 10 mM HEPES, 5.5 mM glucose, 11.9 mM NaHCO3, 2.7 mM KCl, 0.5 mM CaCl2), 1.5 mM MgCl2, and 0.4 mM NaH2PO4, pH 7.4) containing PAC1 antibody for 1 hour at 30° C. and then stained with Alexa 647 (goat anti-mouse IgM) for 30 minutes at RT. The cells were quantified with an LSR flow cytometer using 30,000 cells per measurement.
(§3) The effect of S-TBS on talin-induced activation of integrin αIIbβ3 was examined. CHO-A5 cells that stably express integrin αIIbβ3 were transfected with a green fluorescent protein-tagged talin head domain, treated with S-TBS or TBS, and then subjected flow cytometry analysis for integrin αIIbβ3 activity. […]
(§4) Integrin activation assays: CHO-A5 cells were transfected with talin-head domain, wild-type or W359A, and incubated for 24 hours at 37° C. […] The cells were quantified with a Beckton, Dickenson & Co. Biosciences LSR flow cytometer (660/20 filter, 640 nm laser) using 30,000 cells per measurement.

The test system of data set [3] is CHO-A5 cells. Nature of the data set: Cell permeability assay (flow cytometry uptake of fluorophore-labelled peptide). It counts as in vitro ADME. The settings on record: CHO-A5 cells, lower doses, flow cytometry permeability index, fluorophore-labelled peptides. The protocol:
Assessing membrane permeability: CHO-A5 cells were treated with FAM-labelled WT-TBS (1, 10, and 50 μM), or with FITC-labelled stapled-TBS (1, 10, and 50 μM), and incubated for 30 minutes at 37° C. The cells were washed twice with phosphate-buffered saline (PBS), harvested in trypsin-EDTA, and centrifuged at 2,000 rpm for 5 minutes. The cells were resuspended in PBS and quantified with an LSR flow cytometer using 30,000 cells per measurement.
A common challenge for peptidomimetic drugs that target intracellular proteins is the poor cell membrane permeability. To assess the effect of the C8 staple on cell permeability, FITC-labeled S-TBS were incubated with CHO cells at various concentration and examined S-TBS uptake by flow cytometry. […] The assay was then performed using lower doses of peptides and quantified the signals for statistical analyses. […] In contrast, TBS requires a concentration of at least 5 μM for cell uptake (FIG. 3, Panel B).
Cell permeability assay: CHO-A5 cells were plated in 6-well dishes, and then treated with fluorophore labeled TBS or S-TBS peptides at indicated concentrations for 30 minutes at 37° C. The cells were then washed twice with phosphate-buffered saline (PBS), detached by adding a mixture of trypsin and […] (“trypsin-EDTA”) and harvested by spinning at 2,000 rpm for 5 minutes. The cells were resuspended in PBS and quantified with an LSR flow cytometer (525/50 filter, 488 nm laser) using 30,000 cells per measurement.

Data set [4] concerns HeLa cells. In words: Cell toxicity assay, HeLa. Type of data set: cell-based. The settings on record: 40 μM, treated one hour then washed away, viability at 24 and 48 hours. The protocol: as §1
Data set [5] relates to β3-THD (integrin β3-talin head domain fusion protein). In words: GST pull-down, β3-THD chimera. Type of data set: binding. The settings on record: GST-fused peptide on glutathione beads, His-tagged talin protein, Western blot. The source says:
The interaction of the TBS segment of RIAM with the talin head domain is compatible with the integrin-β:talin interaction (see, Yang et al., Nat. Commun., 2014, 5, 5880). To test this proposed synergistic interaction, a chimeric protein was constructed by fusing a integrin 03 segment to talin head domain (β3-THD) and assessed its interaction with TBS. […] The T14E mutation in TBS is expected to generate anew salt-bridge interaction with talin through the Arg358 residue, which is essential for the interaction of talin and integrin-β3 (FIG. 2, Panel D; see Barsukov et al., J. Biol. Chem., 2003, 278, 31202-09).
Plasmid construction, protein purification, and GST pull-down: Talin R7R8, talin head domain, β3-THD chimera, and GST-TBS were expressed and purified as described previously described (see, Zhang et al., Proc. Natl. Acad. Sci. U.S.A., 2020, 117, 32402-12; and Chang et al., 2014). Point mutations were constructed using a site-directed mutagenesis method. […] The proteins were resolved by SDS-PAGE and detected by Coomassie staining or Western blotting. […] The blots were visualized with the SuperSignal West Pico Chemiluminescent Substrate (Thermo Scientific) and detected using the FluorChem E imager (ProteinSimple).
A general note: In western blotting, separated proteins are transferred to a membrane and probed.

Data set [6] relates to integrin αIIbβ3. Nature of the data set: Integrin activation assay, wild-type talin head domain. It counts as cell-based. The settings on record: CHO-A5 cells expressing GFP-tagged wild-type talin head domain; TBS 100 μM, S-TBS 10 and 100 μM, 30 minutes; PAC1 flow cytometry. The protocol: as §2, §3, §4
A general note: In flow cytometry, cells or beads pass a laser one at a time.

In data set [7] the test system is MCF-7 cells. In words: Cell toxicity assay, MCF-7. Type of data set: cell-based. The settings on record: 40 μM, treated one hour then washed away, viability at 24 and 48 hours. The protocol:
as §1

Data set [8] concerns the target T1, Talin rod R7R8 domains (UniProt P26039 1357-1653, limits assumed).
T1 construct: domain: R7R8; also called talin R7R8; talin rod double-domain R7R8
In words: fluorescence polarization; fluorophore-labelled peptide titrated with talin R7R8. The protocol: (§5) To assess the binding affinities of S-TBS with talin, the Kd of TBS and S-TBS peptides with talin rod R7R8 and talin head (residues 1-430) were measured using fluorophore-labeled peptides and recombinantly expressed, purified talin proteins by FP assays. […] This gain of affinity may be attributed to the C8 staple as it stabilizes the helical structure of TBS, and the enhanced hydrophobic interaction between S-TBS and talin rod. The enhanced binding of S-TBS to talin further validates the design strategy of using stapled peptides as a potent competitive inhibitor.
(§6) Fluorescent Polarization: Mixtures were prepared of purified talin proteins at a series concentration (R7R8: 0.2 μM to 20 μM; THD/b3-THD: 5 μM to 100 μM), or buffer only, with 20 nM FITC-labeled S-TBS (New England Peptide) in a buffer containing 20 mM HEPES, pH 7.5, 100 mM NaCl, and 2 mM DTT. After five minutes of incubation, 20 μl of the reaction mix was added to individual wells of a 384-well assay plate (Corning) and then measured fluorescence polarization at room temperature using a plate reader. A […] as emission polarization filters. FP signals were normalized against buffer-only background and then fit to a single-site (saturating) binding model using SigmaPlot (Systat Software).
(In general: Polarisation of emitted light reports the rotation of a fluorescent probe.)

Data set [9] concerns the target T2, Talin head domain (residues 1-430) (UniProt P26039 1-430).
T2 construct: range 1-430; also called THD
In words: fluorescence polarization; Kd of S-TBS against Kd of TBS. The protocol:
as §5, §6

Data set [10] has as its target T1, Talin rod R7R8 domains. The data set is described as above. The protocol:
as §5, §6

Data set [11] addresses T2, Talin head domain (residues 1-430). In words: fluorescence polarization; fluorophore-labelled peptide titrated with talin head (residues 1-430). The protocol: as §5, §6
Data set [12] has the same target. In words: fluorescence polarization, as the legend of FIG. 9 Panel B prints it (Table 2 prints 116). The protocol: as §5, §6
Data set [13] shares this target. Nature of the data set: fluorescence polarization; fluorophore-labelled peptide, purified talin protein titrated. The protocol:
as §5, §6

Data set [14] addresses T1, Talin rod R7R8 domains. The description is as above. The protocol: as §5, §6

T2 sequence (P26039 1-430 limits assumed): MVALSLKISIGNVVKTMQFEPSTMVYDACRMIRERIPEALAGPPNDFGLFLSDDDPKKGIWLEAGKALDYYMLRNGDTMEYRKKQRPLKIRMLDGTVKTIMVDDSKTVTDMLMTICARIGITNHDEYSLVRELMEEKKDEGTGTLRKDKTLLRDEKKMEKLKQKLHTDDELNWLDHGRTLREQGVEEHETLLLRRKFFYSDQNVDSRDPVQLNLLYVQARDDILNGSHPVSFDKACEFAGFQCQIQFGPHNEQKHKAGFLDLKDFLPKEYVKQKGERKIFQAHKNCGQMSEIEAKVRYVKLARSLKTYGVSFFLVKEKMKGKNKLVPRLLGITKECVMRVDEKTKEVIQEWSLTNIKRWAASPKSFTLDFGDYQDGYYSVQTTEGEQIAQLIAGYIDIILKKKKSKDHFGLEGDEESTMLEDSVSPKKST
T1 sequence (P26039 1357-1653 limits assumed): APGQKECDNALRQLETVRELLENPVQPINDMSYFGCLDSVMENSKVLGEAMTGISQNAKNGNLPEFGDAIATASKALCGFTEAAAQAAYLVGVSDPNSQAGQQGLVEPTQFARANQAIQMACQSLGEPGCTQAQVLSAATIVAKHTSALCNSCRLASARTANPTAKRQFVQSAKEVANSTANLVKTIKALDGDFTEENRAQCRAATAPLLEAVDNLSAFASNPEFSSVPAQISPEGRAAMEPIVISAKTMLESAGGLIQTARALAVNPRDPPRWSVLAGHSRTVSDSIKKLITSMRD

`CC[C@H](C)[C@H](NC(=O)[C@H](CC(=O)O)NC(=O)[C@H](CCC(=O)O)NC(=O)[C@@H](N)CC(N)=O)C(=O)N[C@@H](CC(=O)O)C(=O)N[C@@H](CCC(N)=O)C(=O)N[C@@H](CCSC)C(=O)N[C@@H](Cc1ccccc1)C(=O)N[C@@H](CO)C(=O)N[C@H](C(=O)N[C@@H](CC(C)C)C(=O)N[C@@H](CC(C)C)C(=O)NCC(=O)N[C@@H](CCC(=O)O)C(=O)N[C@@H](CCSC)C(=O)N[C@@H](CC(=O)O)C(=O)N[C@@H](CC(C)C)C(=O)N[C@@H](CC(C)C)C(=O)N[C@H](C(=O)N[C@@H](CCC(N)=O)C(=O)N[C@@H](CO)C(=O)O)[C@@H](C)O)[C@@H](C)O` [TBS, reference compound] (H-NEDIDQMFSTLLGEMDLLTQS-OH; N-terminus and C-terminus assumed): the “cell toxicity (viability / cell growth), HEK” value in data set [1] is “minimal cell toxicity”. In data set [2], the “integrin αIIbβ3 activity with inactive talin head THD-W359A” value is “No inhibitory effect”. The “concentration giving significant cell uptake” value in data set [3] was “at least 5 μM”. Further, the “cell toxicity (viability / cell growth), HeLa” value in data set [4] was “minimal cell toxicity”. For the same molecule, the “interaction with β3-THD (pull-down)” value in [5] is “much more strongly than with THD alone”. Further, in data set [6], the “integrin αIIbβ3 activity (talin-induced activation)” value is reported as “no inhibitory effect”. In [7], the “cell toxicity (viability / cell growth), MCF-7” value is “minimal cell toxicity”.

B1: S-TBS, stapled talin-binding site peptide (Stp(15,19))H2N-NEDIDQMFSTLLGE(S5)DLL(S5)QS-OH (peptide)
peptide: H-NEDIDQMFSTLLGE[S5]DLL[S5]QS-OH
modifications: staple 15-19; also: FITC label in some assays, site not given here
notes: X stands for the non-natural stapling residue (S5); also called stapled TBS; stapled-TBS
For B1, the results for the “EC50 (read off the curve)” value in [8] and in data set [11] were roughly 2 µM and 10 to 20 µM, respectively. The “fold stronger binding than TBS” value amounted to 3.5 fold in [9] and 6 fold in data set [10].
Turning to NEDIDQMFSTLLGEMDLLTQS (also: fluorescein (6-FAM) label in some assays, also called WT-TBS; unstapled TBS) [TBS peptide (unstapled talin-binding site peptide of RIAM)], the dissociation constant (Kd) in data set [12] was 106 µM; in [13], 116 µM; in data set [14] it was 17.7 µM.
